Source: ChEMBL document CHEMBL3596126, “Synthesis, molecular docking and anticancer studies of peptides and iso-peptides” (Bioorg Med Chem Lett, 2015)
Where a SMILES comes first, the peptide text is derived from it. Side-chain parts run from the residue outwards. The star is where a group is joined. Cbz = O=C(OCc1ccccc1)*; Boc = CC(C)(C)OC(=O)*

Assays:
MDA-MB-231 = test: Cytotoxicity against human MDA-MB-231 cells assessed as cell survival at 20 ug/ml relative to control; assay type: functional; conditions: read-out: Survival
MCF7 = test: Cytotoxicity against human MCF7 cells assessed as cell survival at 20 ug/ml relative to control; assay type: functional; conditions: read-out: Survival
HEK293 = test: Inhibition of TNF-alpha activated nuclear factor-kappa B in HEK293 cells at 20 ug/ml after 6 hrs by luciferase reporter gene assay relative to control; assay type: cell-based; conditions: Homo sapiens
[1] = Cytotoxicity against HEK293 cells assessed as cell survival at 20 ug/ml after 6 hrs by SRB assay relative to control; assay type: cell-based; conditions: human, read-out: Survival
[2] = target: NAD(P)H dehydrogenase [quinone] 1 (Mus musculus) (UniProt Q64669); test: Activation of Quinone reductase-1 in mouse Hepa-1c1c7 cells assessed as induction ratio at 20 ug/ml after 48 hrs by MTT assay; assay type: cell-based
[3] = Inhibition of TNF-alpha activated nuclear factor-kappa B in HEK293 cells after 6 hrs by luciferase reporter gene assay; assay type: cell-based; conditions: Homo sapiens, HEK293, 6 h

NAD(P)H dehydrogenase [quinone] 1 (Mus musculus), sequence (Q64669 whole entry): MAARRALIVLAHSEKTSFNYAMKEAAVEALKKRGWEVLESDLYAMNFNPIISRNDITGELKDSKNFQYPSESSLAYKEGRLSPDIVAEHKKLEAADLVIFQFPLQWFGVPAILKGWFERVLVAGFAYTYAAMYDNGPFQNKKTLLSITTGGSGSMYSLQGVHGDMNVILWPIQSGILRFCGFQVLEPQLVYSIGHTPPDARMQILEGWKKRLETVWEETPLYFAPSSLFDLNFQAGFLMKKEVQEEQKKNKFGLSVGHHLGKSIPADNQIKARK

IC50 [3] [µM] | Structure (SMILES) | viability at 20 µg/mL (MDA-MB-231) [%] | viability at 20 µg/mL (MCF7) [%] | inhibition (HEK293) [%] | viability at 6 h, 20 ug/ml [1] [%] | Ratio [2]
 | C[C@H](OC(=O)CNC(=O)OC(C)(C)C)[C@H](NC(=O)[C@@H](N)Cc1ccccc1)C(=O)O | 93.9 | 93.8 | 26.3 | 103 | 1
 | C[C@H](NC(=O)OCc1ccccc1)C(=O)n1nnc2ccccc21 | 106 | 104 | 32.6 | 126 | 1
 | c1ccc2[nH]nnc2c1 [BENZOTRIAZOLE] | 103 | 104 | 3.6 | 99.7 | 1.2
5.05 | Cc1ccc(S(=O)(=O)N[C@@H](Cc2ccccc2)C(=O)CCl)cc1 [TPCK] |  |  |  |  | 
 | CC(C)(C)OC(=O)NCC(=O)OC[C@H](NC(=O)[C@H](Cc1ccccc1)NC(=O)OCc1ccccc1)C(=O)O | 92.1 | 142 | -5.2 | 136 | 1.1
 | O=C(N[C@@H](Cc1ccccc1)C(=O)n1nnc2ccccc21)OCc1ccccc1 | 98 | 74.2 |  | 104 | 1.3
 | C[C@H](O)[C@H](NC(=O)[C@H](Cc1ccccc1)NC(=O)OCc1ccccc1)C(=O)O | 104 | 58.3 | 55.7 | 122 | 2.2
 | C[C@H](NC(=O)OCc1ccccc1)C(=O)N[C@H](C(=O)O)[C@H](C)O | 92.8 | 106 |  | 116 | 1.7
 | C[C@H](NC(=O)OCc1ccccc1)C(=O)N[C@H](CO)C(=O)O | 94.9 | 66.3 | 10.7 | 123 | 0.9
 | C[C@H](NC(=O)OCc1ccccc1)C(=O)N[C@@H](COC(=O)CNC(=O)OC(C)(C)C)C(=O)O (Cbz-Ala-Ser([Gly-Boc])-OH) | 104 | 110 | 22 | 108 | 2.5
 | C[C@H](NC(=O)OCc1ccccc1)C(=O)N[C@@H](Cc1ccccc1)C(=O)O | 98.9 | 63.9 | 18.7 | 113 | 1.1
 | O=C(N[C@@H](Cc1ccccc1)C(=O)N[C@@H](CO)C(=O)O)OCc1ccccc1 | 99.9 | 75.8 | 18.3 | 119 | 1.2
 | C[C@H](OC(=O)CNC(=O)OC(C)(C)C)[C@H](NC(=O)[C@H](Cc1ccccc1)NC(=O)OCc1ccccc1)C(=O)O | 83.9 | 114 | -4.1 | 122 | 0.9
 | C[C@H](NC(=O)OC(C)(C)C)C(=O)n1nnc2ccccc21 | 90.9 | 75.8 | 35.7 | 122 | 1.2
 | O=C(N[C@@H](Cc1ccccc1)C(=O)NCC(=O)n1nnc2ccccc21)OCc1ccccc1 | 106 | 93.2 | 12.2 | 96.9 | 0.9
 | CC(C)(C)OC(=O)NCC(=O)OC[C@@H](NC(=O)[C@H](Cc1ccccc1)NC(=O)OCc1ccccc1)C(=O)O | 106 | 126 | 10.1 | 121 | 1.1
 | C[C@H](NC(=O)OCc1ccccc1)C(=O)N[C@@H](Cc1ccccc1)C(=O)n1nnc2ccccc21 | 91.4 | 59.3 | 49.6 | 104 | 1.2
 | C[C@H](NC(=O)OCc1ccccc1)C(=O)N[C@@H](CO)C(=O)O | 98.1 | 78.6 | 13.9 | 110 | 1.1
 | O=C(N[C@@H](Cc1ccccc1)C(=O)N[C@H](CO)C(=O)O)OCc1ccccc1 | 97.4 | 69.5 | 24.5 | 122 | 1.5
 | CC(C)(C)OC(=O)NCC(=O)OC[C@H](NC(=O)[C@@H](N)Cc1ccccc1)C(=O)O (H-Phe-Ser([Gly-Boc])-OH) | 99.4 | 104 | 14.8 | 121 | 2.4
 | CC(C)(C)OC(=O)NCC(=O)n1nnc2ccccc21 | 108 | 90.3 | 41.3 | 110 | 1.1
